Data published in patent US20180136241A1, “METHOD FOR EXAMINING FOOD ALLERGY AND EXAMINATION KIT” (The University of Tokyo, priority 2014, published 2018).

Assays:
[1] = cited from earlier work
[2] = test system: food allergy symptoms induced by OVA; test: Frequency of diarrhea in OVA-induced food allergy model mouse; assay type: in vivo; settings: BALB/c mice sensitized with OVA, drug i.p. every day during OVA oral administration period; cromolyn 300 μg/mouse, DEX 2 mg/kg; n=5
Description: (§1) Model preparation: Wild type BALB/c mice (6-8 weeks old, female) were intraperitoneally sensitized with OVA by administering OVA (50 μg) twice at intervals of two weeks. Two weeks later, OVA (10 mg) was orally administered 10 times in total at intervals of two days. As a control, the mice sensitized with OVA was orally administered with physiological saline 10 times in total at intervals of two days.
Medication treatment: During the period of orally administering OVA to the mice sensitized with OVA in accordance with the aforementioned method, dexamethasone (2 mg/kg) or sodium cromoglycate (300 μg/mouse) were intraperitoneally administered every day.
Symptom evaluation: The number of mice which developed diarrhea within one hour after the OVA administration is determined in percentage.

[3] = test system: tetranor-PGDM amount excreted in the urine; test: Urinary tetranor-PGDM by HPLC-MS/MS in OVA-induced food allergy model mouse; assay type: in vivo; settings: BALB/c mice sensitized with OVA, drug i.p. every day during OVA oral administration period; cromolyn 300 μg/mouse, DEX 2 mg/kg; n=5
Description: as §1
Medication treatment: During the period of orally administering OVA to the mice sensitized with OVA in accordance with the aforementioned method, dexamethasone (2 mg/kg) or sodium cromoglycate (300 μg/mouse) were intraperitoneally administered every day. […]
Using the urine sample pretreated, tetranor-PGDM and tetranor-PGEM were measured by a high performance liquid chromatography tandem mass spectrometer (HPLC-MS/MS). […] As a quantitative method, MRM (Multiple Reaction Monitoring) method was employed. Tetranor-PGDM (mass number 328) and tetranor-PGEM (mass number 328) were detected by using product ion m/z 309, which was produced by further decomposing the produced precursor ion m/z (mass number÷charge) 327 by collision induced dissociation (CID). Internal standards, tetranor-PGDM-d6 (mass number 334) and tetranor-PGEM-d6 (mass number 334), were detected by using product ion m/z 315, which was produced by further decomposing precursor ion m/z (mass number÷charge) 333 by CID. […]

[4] = cited from earlier work; remark: listed apart in the source

SMILES: CCCCC[C@H](O)/C=C/[C@H]1C(=O)C[C@H](O)[C@@H]1C/C=C\CCCC(=O)O [PGD2, prostaglandin D2]
- time in which PGD2 is metabolized in vivo [1]: 50 s

SMILES: O=C(O)c1cc(=O)c2c(OCC(O)COc3cccc4oc(C(=O)O)cc(=O)c34)cccc2o1 [cromolyn, sodium cromoglycate]
- food allergy symptoms induced by OVA (frequency of diarrhea) [2]: suppressed food allergy symptoms
- tetranor-PGDM amount excreted in the urine [3]: significantly decreased

SMILES: NCCc1c[nH]cn1 [histamine]
- time in which histamine in the blood disappears [4]: 15 min
